Biological target: WT PA channel (Bacillus anthracis, UniProt P13423)
Type: biochemical

Chain of WT PA channel (P13423 197-764 limits assumed): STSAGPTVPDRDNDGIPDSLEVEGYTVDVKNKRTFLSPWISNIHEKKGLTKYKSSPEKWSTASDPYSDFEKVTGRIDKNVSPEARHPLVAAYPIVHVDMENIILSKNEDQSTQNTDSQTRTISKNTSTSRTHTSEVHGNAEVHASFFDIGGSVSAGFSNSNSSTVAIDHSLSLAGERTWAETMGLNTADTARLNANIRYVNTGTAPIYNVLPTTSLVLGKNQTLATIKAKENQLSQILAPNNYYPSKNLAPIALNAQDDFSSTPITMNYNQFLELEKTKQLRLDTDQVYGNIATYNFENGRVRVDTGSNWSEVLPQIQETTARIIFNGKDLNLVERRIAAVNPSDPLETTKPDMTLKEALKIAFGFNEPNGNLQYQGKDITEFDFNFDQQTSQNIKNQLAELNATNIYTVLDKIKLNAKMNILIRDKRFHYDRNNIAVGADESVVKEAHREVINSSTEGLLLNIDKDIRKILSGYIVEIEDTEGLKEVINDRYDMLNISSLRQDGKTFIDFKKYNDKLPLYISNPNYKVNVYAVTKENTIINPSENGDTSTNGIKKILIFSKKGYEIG

D-Trp
dissociation to the cis side slower than L-Trp (pH 5.6): ~ 20 fold
relative rate of dissociation to the cis side (in words) (pH 5.6): dissociated the slowest
translocation slower than L-Trp (pH 5.6): ~ 10 fold

L-Trp
duration of the I2/B oscillation among guest–host peptides: longest durations
oscillation between conductance states during translocation: exhibited an oscillation between the I2 and B
relative rate of dissociation to the cis side (in words) (pH 5.6): dissociated the fastest
translocation (in words) (pH 5.6): translocated the fastest
translocation faster than D,L-Trp and D-Trp peptides (pH 5.6): 10 fold
translocation faster than the HBS stapled peptide (pH 5.6): ~ 100 fold

Reference: publication PMC5562545 (Journal of molecular biology, 2017)
